pIC50: −log10 of the molar value.
Experiments:
Aβ total = Aβ total cellular assay in H4 neuroglioma cells stably expressing human APP695 (electrochemiluminescence), used for the ratio Aβ total IC50 / Aβ42 IC50; format: cell-based; settings: higher ratio = more specific inhibition of Aβ42
Procedure: (§1) Cells were plated out to near confluency. The compounds to be tested were received as 10 mM stocks in 100% DMSO. A dilution series was initially generated in 100% DMSO and then diluted 200-fold in cell culture media such that the tested concentration range was 30 µM to 0.1 nM and the final DMSO concentration was 0.5%. The diluted compounds were incubated with the cells for 22 hours in an incubator at 37°C and 5% CO2. Aβ42 as well as Aβ total levels were then measured post-incubation from the supernatant of the cells. Aβ42 levels were determined using a specific electrochemiluminescence assay provided by Meso Scale Discovery (Catalog # L21CA-1) according to the manufacturer's protocol. Aβ total levels were likewise determined using a specific electrochemiluminescence assay provided by Meso Scale Discovery (Catalog # L21ZA-1) according to the manufacturer's protocol.
(§2) In order to absolutely define the described compounds as modulators of γ-Secretase as opposed to simply inhibitors of γ-Secretase, measurements of not only Aβ42 but also Aβ total are performed.

Aβ42 = Aβ42 cellular assay in H4 neuroglioma cells stably expressing human APP695 (electrochemiluminescence, Meso Scale Discovery); format: cell-based; settings: 22 hours incubation, supernatant
Procedure: as §1, §2

| Structure (SMILES) | pIC50 (Aβ42) | Ratio Aβ(total)/Aβ42 (Aβ total) |
| --- | --- | --- |
| CCc1nc(Nc2ccc(-n3cnc(C)c3)c(OC)c2)nc2c1NC(=O)[C@H]1[C@@H](c3ccc(F)cc3)CCN21 (racemic) [Example 22] | 6.09 | 71 |
| CCc1nc(Nc2ccc(-n3cnc(C)c3)c(OC)c2)nc2c1NC(=O)[C@@]1(C)[C@@H](OC)CN21 (racemic) [Example 27] | 6.44 | 70 |
| CCN1C(=O)C2CCCCCN2c2nc(Nc3ccc(-c4ccnc(C)c4)cc3)ncc21 (centres unmarked) [Example 3] | 6.40 | 17 |
| CCN1C(=O)C2CCCCCN2c2nc(Nc3ccc(-n4cnc(C)n4)c(OC)c3)ncc21 (centres unmarked) [Example 5-3] | 6.58 | 101 |
| CCN1C(=O)C2CCCCCN2c2nc(Nc3ccc(-c4cnc(C)s4)c(OC)c3)ncc21 (centres unmarked) [Example 5-5] | 6.15 | 13 |
| CCN1C(=O)C2CCCCCN2c2nc(Nc3ccc(-n4cnc(C)c4)cc3)ncc21 (centres unmarked) [Example 5-6] | 6.15 | 43 |
| CCN1C(=O)C2CCCCCN2c2nc(Nc3ccc(-n4cnc(C)c4)cc3OC)ncc21 (centres unmarked) [Example 5-7] | 4.94 | 3 |
| CCCN1C(=O)C2CCCCCN2c2nc(Nc3ccc(-c4ccnc(C)c4)cc3)ncc21 (centres unmarked) [Example 5] | 6.14 | 14 |
| CCc1nc(Nc2ccc(-c3ccnc(C)c3)cc2)nc2c1N(C)C(=O)C1CCCN21 (centres unmarked) [Example 8] | 6.53 | 62 |
| CCc1nc(Nc2ccc(-c3cnc(C)o3)nc2)nc2c1N(C)C(=O)C1CCCN21 (centres unmarked) [Example 9] | 5.91 | >24 |
| COc1cc(Nc2ncc3c(n2)N2CCCC2C(=O)N3C)ccc1-n1cnc(C)n1 (centres unmarked) [Example 12-1] | 5.53 | >10 |
| CN1C(=O)C2CCCN2c2nc(Nc3ccc(-c4cnn(C)c4)nc3)ncc21 (centres unmarked) [Example 12-2] | 5.24 | >5 |
| Cc1cn(-c2ccc(Nc3ncc4c(n3)N3CCCC3C(=O)N4C)cc2F)cn1 (centres unmarked) [Example 12-3] | 5.96 | >27 |
| COc1cc(Nc2ncc3c(n2)N2CCCC2C(=O)N3C)ccc1-n1ncnc1C (centres unmarked) [Example 12-4] | 6.12 | >39 |
| COc1cc(Nc2nc(SC)c3c(n2)N2CCCCC2C(=O)N3C)ccc1-n1cnc(C)c1 (centres unmarked) [Example 13] | 6.38 | 14 |
| CCc1nc(Nc2ccc(-n3cnc(C)c3)c(OC)c2)nc2c1NC(=O)[C@@H]1C[C@@H](OC)CN21 [Example 17] | 6.52 | 68 |
| CCc1nc(Nc2ccc(-c3cnc(C)o3)c(OC)c2)nc2c1NC(=O)[C@@H]1C[C@@H](OC)CN21 [Example 19] | 6.44 | 82 |
| CCc1nc(Nc2ccc(-n3cnc(C)c3)c(OC)c2)nc2c1NC(=O)C1COCCN21 (centres unmarked) [Example 28] | 6.57 | 29 |
| CCc1nc(Nc2ccc(-n3cnc(C)c3)c(OC)c2)nc2c1N(C)C(=O)C1COCCN21 (centres unmarked) [Example 29] | 6.64 | 76 |
| COc1cc(Nc2ncc3c(n2)N2CCCOCC2C(=O)N3)ccc1-n1cnc(C)c1 (centres unmarked) [Example 30] | 6.51 | 96 |
| COc1cc(Nc2ncc3c(n2)N2CCCOC2(C)C(=O)N3C)ccc1-n1cnc(C)c1 (centres unmarked) [Example 31] | 6.27 | 55 |
| CC(C)Cc1nc(Nc2ccc(-c3cnn(C)c3)cc2)nc2c1N(C)C(=O)C1CCCN21 (centres unmarked) [Example 34] | 6.03 | 30 |
| COc1cc(Nc2nc(C(C)C)c3c(n2)N2CCN(C(=O)OC(C)(C)C)CC2C(=O)N3C)ccc1-n1cnc(C)c1 (centres unmarked) [Example 37] | 6.49 | 12 |

The next compounds have a higher pIC50 (Aβ42) than those just listed; values first:

| pIC50 (Aβ42) | Structure (SMILES) | Ratio Aβ(total)/Aβ42 (Aβ total) |
| --- | --- | --- |
| 6.65 | CCc1nc(Nc2ccc(-n3cnc(C)c3)c(OC)c2)nc2c1NC(=O)C1CC(OC)CCN21 (racemic) [Example 20] | 30 |
| 6.65 | CCc1nc(Nc2ccc(-n3cnc(C)c3)c(C#N)c2)nc2c1NC(=O)[C@@H]1C[C@@H](OC)CN21 [Example 16] | 33 |
| 6.70 | CCc1nc(Nc2ccc(-n3cnc(C)c3)c(OC)c2)nc2c1N(CCOC)C(=O)[C@@H]1C[C@@H](OC)CN21 [Example 19-1] | 131 |
| 6.76 | CCN1C(=O)C2CCCCCN2c2nc(Nc3ccc(-n4ccnc4)c(OC)c3)ncc21 (centres unmarked) [Example 5-2] | 64 |
| 6.76 | CCN1C(=O)C2CCCCCN2c2nc(Nc3cnc(-n4cnc(C)c4)c(OC)c3)ncc21 (centres unmarked) [Example 5-4] | >175 |
| 6.78 | CCc1nc(Nc2ccc(-n3cnc(C)c3)c(OC)c2)nc2c1N(C)C(=O)[C@@]1(C)C[C@@H](OC)CN21 [Example 24] | 181 |
| 6.80 | COc1cc(Nc2ncc3c(n2)N2CCCC2(C)C(=O)N3C)ccc1-n1cnc(C)c1 (centres unmarked) [Example 12] | 147 |
| 6.83 | CCc1nc(Nc2ccc(-c3cnc(C)o3)c(OC)c2)nc2c1N(C)C(=O)C1CCCN21 (centres unmarked) [Example 10] | 189 |
| 6.84 | CCc1nc(Nc2ccc(-n3cnc(C)c3)c(C#N)c2)nc2c1N(C)C(=O)[C@@H]1C[C@@H](OC)CN21 [Example 15] | 36 |
| 6.84 | CCc1nc(Nc2ccc(-n3cnc(C)c3)c(OC)c2)nc2c1N(C)C(=O)[C@]1(C)C[C@@H](OC)CN21 [Example 25] | 73 |
| 6.85 | CCc1nc(Nc2ccc(-c3cnc(C)o3)c(OC)c2)nc2c1N(C)C(=O)[C@@H]1C[C@@H](OC)CN21 [Example 18] | 215 |
| 6.87 | COc1cc(Nc2nc(C(C)C)c3c(n2)N2CCCC2C(=O)N3C)ccc1-n1cnc(C)c1 (centres unmarked) [Example 32] | 66 |
| 6.90 | Cc1cn(-c2ccc(Nc3nc(CC(C)C)c4c(n3)N3CCCC3C(=O)N4C)cc2C#N)cn1 (centres unmarked) [Example 35] | 71 |
| 6.95 | CCCN1C(=O)C2CCCCCN2c2nc(Nc3ccc(-n4cnc(C)c4)c(OC)c3)ncc21 (centres unmarked) [Example 4] | 44 |
| 6.98 | CCc1nc(Nc2ccc(-n3cnc(C)c3)c(OC)c2)nc2c1N(C)C(=O)C1CC(OC)CCN21 (racemic) [Example 21] | 98 |
| 7.01 | COc1cc(Nc2ncc3c(n2)N2CCCCCC2C(=O)N3C)ccc1-n1cnc(C)c1 (centres unmarked) [Example 2] | 59 |
| 7.01 | COc1cc(Nc2ncc3c(n2)N2CCCC2C(=O)N3C)ccc1-n1cnc(C)c1 (centres unmarked) [Example 11] | >310 |
| 7.01 | CCc1nc(Nc2ccc(-n3cnc(C)c3)c(OC)c2)nc2c1N(C)C(=O)[C@@H]1C[C@@H](OC)CN21 [Example 14] | 67 |
| 7.02 | CCc1nc(Nc2ccc(-n3cnc(C)c3)c(OC)c2)nc2c1NC(=O)C1CCCN21 (centres unmarked) [Example 7] | 98 |
| 7.08 | CCc1nc(Nc2ccc(-n3cnc(C)c3)c(OC)c2)nc2c1N(C)C(=O)C1CCCN21 (centres unmarked) [Example 6] | 96 |
| 7.12 | COc1cc(Nc2nc(CC(C)C)c3c(n2)N2CCCC2C(=O)N3C)ccc1-n1cnc(C)c1 (centres unmarked) [Example 33] | 171 |
| 7.14 | COc1cc(Nc2ncc3c(n2)N2CCCCCC2C(=O)N3C(C)C)ccc1-n1cnc(C)c1 (centres unmarked) [Example 5-1] | 109 |
| 7.15 | CCc1nc(Nc2ccc(-n3cnc(C)c3)c(OC)c2)nc2c1N(C)C(=O)[C@H]1[C@H](c3ccc(F)cc3)CCN21 (racemic) [Example 23] | 90 |
| 7.19 | CCc1nc(Nc2ccc(-n3cnc(C)c3)c(OC)c2)nc2c1N(C)C(=O)C1CCCCN21 (centres unmarked) [Example 36] | 86 |
| 7.20 | COc1cc(Nc2nc(CC(C)C)c3c(n2)N2C[C@H](OC)C[C@]2(C)C(=O)N3C)ccc1-n1cnc(C)c1 [Example 26] | 253 |
| 7.32 | CCN1C(=O)C2CCCCCN2c2nc(Nc3ccc(-n4cnc(C)c4)c(OC)c3)ncc21 (centres unmarked) [Example 1] | 127 |

From patent publication EP2958919B1, “DIHYDROPTERIDINONES I” (Boehringer Ingelheim International GmbH, priority 2013, dated 2014)
